Among the data in PubChem BioAssay AID588645 (Sanford-Burnham Center for Chemical Genomics, 2011) are IC50 values, retold here.

Activity calls are given as the source filed them. How the calls were made is not given here.

Sequence of Intestinal-type alkaline phosphatase (Homo sapiens) (P09923 whole entry, looked up): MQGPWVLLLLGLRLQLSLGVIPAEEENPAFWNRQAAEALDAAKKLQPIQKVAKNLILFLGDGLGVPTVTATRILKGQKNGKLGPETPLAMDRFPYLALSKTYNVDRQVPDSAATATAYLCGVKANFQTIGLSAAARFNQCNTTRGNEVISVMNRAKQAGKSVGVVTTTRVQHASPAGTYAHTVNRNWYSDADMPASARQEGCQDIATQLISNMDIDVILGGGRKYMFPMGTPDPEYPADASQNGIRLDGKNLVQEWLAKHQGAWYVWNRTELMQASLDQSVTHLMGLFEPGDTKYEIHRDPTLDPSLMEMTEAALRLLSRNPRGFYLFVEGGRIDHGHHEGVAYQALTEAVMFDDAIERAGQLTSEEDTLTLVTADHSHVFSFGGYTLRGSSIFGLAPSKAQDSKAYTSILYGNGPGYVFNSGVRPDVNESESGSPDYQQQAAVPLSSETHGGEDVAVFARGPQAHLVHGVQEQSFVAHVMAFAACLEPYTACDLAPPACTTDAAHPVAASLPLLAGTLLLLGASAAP

The assay concerns the target Intestinal-type alkaline phosphatase (Homo sapiens) (UniProt P09923). The assay is described as follows: human IAP enzyme inhibitors, SAR follow-up, mouse IAP inhibitor project, biochemical, set 2 (AID 588645). Conditions: human intestinal alkaline phosphatase enzymatic inhibition assay.
For the compound `COc1ccc(C(=O)N/N=C/c2ccccc2F)cc1`, the IC50 (in general, the point on the concentration scale where inhibition reaches its midpoint) is > 100 µM (inactive).
The value for `COc1ccc(CNC(=O)CNS(=O)(=O)c2ccc3[nH]c(=O)oc3c2)cc1` was > 100 µM (inactive); that for `Cc1ccc(CNC(=O)CCNS(=O)(=O)c2ccc3[nH]c(=O)oc3c2)cc1` was > 100 µM (inactive).
With `COc1ccc(CNC(=O)CCNS(=O)(=O)c2ccc3[nH]c(=O)oc3c2)cc1`, the IC50 is > 100 µM (inactive).
As to `COc1ccc(OC)c(NC(=O)CCNS(=O)(=O)c2ccc3c(c2)oc(=O)n3C)c1`, the IC50 is > 100 µM (inactive).
Regarding `O=C(CCNS(=O)(=O)c1ccc2[nH]c(=O)oc2c1)Nc1ccc2c(c1)OCO2`, the IC50 was > 100 µM (inactive).
In the case of `COc1ccc(NC(=O)CCNS(=O)(=O)c2ccc3[nH]c(=O)oc3c2)cc1OC`, the IC50 is > 100 µM (inactive).
For `COc1ccc(CNC(=O)CCNS(=O)(=O)c2ccc3[nH]c(=O)oc3c2)c(OC)c1`, the IC50 is > 100 µM (inactive).
On to `O=C(N/N=C/c1ccccc1C(F)(F)F)c1cc(O)c(O)c(O)c1`, for which the IC50 is > 100 µM (inactive).
The value for `CCOc1ccc(CNC(=O)C2CCCN(S(=O)(=O)c3ccc4[nH]c(=O)oc4c3)C2)cc1OC` (centres undefined) was > 100 µM (inactive); that for `Cc1ccc(C)c(NC(=O)CCNS(=O)(=O)c2ccc3ccccc3c2)c1` was > 100 µM (inactive); that for `O=C(CCCNS(=O)(=O)c1ccc2[nH]c(=O)oc2c1)NCc1cccc(F)c1` was > 100 µM (inactive).
With `CSc1cccc(NC(=O)C2CCCN(S(=O)(=O)c3ccc4c(c3)oc(=O)n4C)C2)c1` (centres undefined), the IC50 was > 100 µM (inactive).
The value for `O=C(NCc1ccccc1)C1CCCN(S(=O)(=O)c2ccc3[nH]c(=O)oc3c2)C1` (centres undefined) was > 100 µM (inactive).
Take `COc1ccc(CCNC(=O)CCCNS(=O)(=O)c2ccc3[nH]c(=O)oc3c2)cc1OC`: the IC50 is > 100 µM (inactive).
Consider `O=C(N/N=C/c1c(Cl)cccc1Cl)c1cc(O)c(O)c(O)c1`, for which the IC50 is > 100 µM (inactive).
As for `O=C(CCNS(=O)(=O)c1ccc2[nH]c(=O)oc2c1)NCc1cccc(F)c1`, the IC50 is > 100 µM (inactive).
Take `Cc1ccc(C)c(NC(=O)C2CCCN(S(=O)(=O)c3ccc4c(c3)oc(=O)n4C)C2)c1` (centres undefined): the IC50 is > 100 µM (inactive).
The value for `COc1ccc(NC(=O)CCCNS(=O)(=O)c2ccc3[nH]c(=O)oc3c2)cc1OC` was > 100 µM (inactive); that for `O=C(CCNS(=O)(=O)c1ccc2[nH]c(=O)oc2c1)NCCc1ccc(O)cc1` was > 100 µM (inactive); that for `COc1cccc(C(=O)N/N=C/c2ccccc2F)c1` was > 100 µM (inactive).
The value for `O=C(CCNS(=O)(=O)c1ccc2[nH]c(=O)oc2c1)NCc1ccccc1` was > 100 µM (inactive); that for `O=C(CCNS(=O)(=O)c1ccc2[nH]c(=O)oc2c1)NCCc1ccc2c(c1)OCO2` was > 100 µM (inactive); that for `COc1ccc(NS(=O)(=O)c2ccc3[nH]c(=O)oc3c2)cc1OC` was > 100 µM (inactive).
On to `Cc1ccccc1CNC(=O)C1CCCN(S(=O)(=O)c2ccc3[nH]c(=O)oc3c2)C1` (centres undefined), for which the IC50 is > 100 µM (inactive).
The value for `O=C(CCNS(=O)(=O)c1ccc2[nH]c(=O)oc2c1)NCc1ccc(C(F)(F)F)cc1` was > 100 µM (inactive).
The value for `Cc1ccc(C)c(NC(=O)CCNS(=O)(=O)c2ccc3[nH]c(=O)oc3c2)c1` was > 100 µM (inactive); that for `O=C(CCNS(=O)(=O)c1ccc2[nH]c(=O)oc2c1)NCc1cccc(Cl)c1` was > 100 µM (inactive).
Regarding `O=C(N/N=C/c1cc(Br)ccc1F)c1ccc(O)cc1`, the IC50 was > 100 µM (inactive).
The value for `COc1ccc(CNS(=O)(=O)c2ccc3[nH]c(=O)oc3c2)c(OC)c1` was > 100 µM (inactive).
Consider `COc1ccccc1CNC(=O)CCCNS(=O)(=O)c1ccc2[nH]c(=O)oc2c1`, for which the IC50 is > 100 µM (inactive).
The value for `O=C(N/N=C/c1ccccc1Cl)c1cc(O)c(O)c(O)c1` was > 100 µM (inactive); that for `COc1cc(C(=O)N/N=C/c2c(F)cccc2Cl)cc(OC)c1OC` was > 100 µM (inactive).
Consider `Cc1ccc(NC(=O)CCNS(=O)(=O)c2ccc3c(c2)oc(=O)n3C)cc1C`, for which the IC50 was > 100 µM (inactive).
In the case of `COc1ccc(/C=N/NC(=O)c2cc(O)c(O)c(O)c2)cc1OC`, the IC50 was > 100 µM (inactive).
Turning to `O=C(NCc1ccc(F)cc1)C1CCCN(S(=O)(=O)c2ccc3[nH]c(=O)oc3c2)C1` (centres undefined), the IC50 is > 100 µM (inactive).
The value for `O=C(CCNS(=O)(=O)c1ccc2[nH]c(=O)oc2c1)NCc1ccccc1Cl` was > 100 µM (inactive); that for `O=C(N/N=C/c1ccc(Br)cc1F)c1cc(O)ccc1O` was > 100 µM (inactive).
The value for `O=C(N/N=C/c1ccccc1F)c1ccc(O)cc1O` was > 100 µM (inactive); that for `CC(C)Oc1ccc(CNC(=O)C2CCCN(S(=O)(=O)c3ccc4[nH]c(=O)oc4c3)C2)cc1` (centres undefined) was > 100 µM (inactive); that for `CCOc1cc(C(=O)N/N=C/c2c(F)cccc2Cl)cc(OCC)c1OCC` was > 100 µM (inactive).
On to `Cc1ccc(C)c(NC(=O)CNS(=O)(=O)c2ccc3[nH]c(=O)oc3c2)c1`, for which the IC50 was > 100 µM (inactive).
The value for `O=C(NCc1ccc2c(c1)OCO2)C1CCCN(S(=O)(=O)c2ccc3[nH]c(=O)oc3c2)C1` (centres undefined) was > 100 µM (inactive).
As for `O=C(CCNS(=O)(=O)c1ccc2[nH]c(=O)oc2c1)NCc1ccc(Cl)cc1`, the IC50 is > 100 µM (inactive).
The value for `CN(C)c1ccc(CNC(=O)C2CCCN(S(=O)(=O)c3ccc4[nH]c(=O)oc4c3)C2)cc1` (centres undefined) was > 100 µM (inactive); that for `COc1ccc(/C=N/NC(=O)c2cc(O)c(O)c(O)c2)c(OC)c1` was > 100 µM (inactive).
The value for `O=C(N/N=C/c1c(F)cccc1Cl)c1ccc(O)cc1O` was > 100 µM (inactive).
The value for `O=C(CCCNS(=O)(=O)c1ccc2[nH]c(=O)oc2c1)NCc1ccc2c(c1)OCO2` was > 100 µM (inactive); that for `O=C(N/N=C/c1ccc(Cl)c(Cl)c1)c1cc(O)c(O)c(O)c1` was > 100 µM (inactive).
With `N#Cc1cccc(NC(=O)CNS(=O)(=O)c2ccc3[nH]c(=O)oc3c2)c1`, the IC50 is > 100 µM (inactive).
The value for `O=C(CCNS(=O)(=O)c1ccc2[nH]c(=O)oc2c1)NCc1ccc(O)c(O)c1` was 18.1 µM; that for `CC(C)(C)c1ccc(/C=N/NC(=O)c2cc(O)c(O)c(O)c2)cc1` was > 100 µM (inactive); that for `CC(=NNC(=O)c1ccccc1OCCOc1ccccc1)c1ccccc1F` was > 100 µM (inactive).
The value for `Cc1ccc(NC(=O)CCNS(=O)(=O)c2ccc3[nH]c(=O)oc3c2)cc1C` was > 100 µM (inactive).
In the case of `Cc1ccc(NC(=O)CCNS(=O)(=O)c2ccc3c(c2)oc(=O)n3C)c(C)c1`, the IC50 was > 100 µM (inactive).
The value for `O=C(N/N=C/c1ccccc1F)c1ccccc1OCc1ccccc1` was > 100 µM (inactive); that for `O=C(CCS(=O)(=O)Nc1ccc2[nH]c(=O)oc2c1)NCc1cccc(F)c1` was > 100 µM (inactive).
In the case of `N#Cc1ccc(NS(=O)(=O)c2ccc3[nH]c(=O)oc3c2)cc1`, the IC50 was > 100 µM (inactive).
The value for `COc1ccc(CNC(=O)CNS(=O)(=O)c2ccc3[nH]c(=O)oc3c2)c(OC)c1` was > 100 µM (inactive).
